Measured values: patent US20070004633A1, “Use of peptidic conjugates for preparing compositions for alopecia preventive and curative treatment” (priority 2003, published 2007)
Lipoyl = N-lipoyl

Test system: anagen-phase hair follicles of mouse vibrissae
Assay: Growth of mouse vibrissae in vitro (anagen-phase hair follicle culture, technique of Philpott)
Assay type: cell-based
Set-up: unit not given here
Details: peptide 10^−7 M, cultured mouse vibrissae follicles
Procedure: Effects of the Various Peptides on the Growth of Mouse Vibrissae In Vitro
In order to show the stimulatory effect of the peptides on hair growth, anagen-phase hair follicles of mouse vibrissae are cultured according to the technique described by Philpott (Philpott et al. 1994, Human Hair growth in vitro: a model for the study of hair biology. Journal of dermatological science 7; S55-S72). The growth of the hair follicle shaft was followed for several days (D0 to D4). The results are reported in the table below for the peptides R, S and V described above.

Substance	growth of the hair follicle shaft (D0)	growth of the hair follicle shaft (D1)	growth of the hair follicle shaft (D2)	growth of the hair follicle shaft (D3)	growth of the hair follicle shaft (D4)
H-Gly-His-Lys-OH [Peptide R]	0.00	0.8	1.27	1.38	1.38
Ac-Lys-Gly-His-Lys-NH2 (Ac-KGHK-NH2) [Peptide V]	0.00	0.86	1.34	1.65	1.65
Lipoyl-Lys-Gly-His-Lys-NH2 (Lipoyl-KGHK-NH2) [Peptide S]	0.00	0.77	1.47	1.72	1.86
